Values after ≈ are worked out from the molar mass of the structure shown. Where two headings read alike, the source gives them in different places.
Legend:
in vitro = conditions: human
Experimental: (§1) We plated in 96-well microplates—each containing a 100 µL culture medium—exponentially growing cells of human skin fibroblasts WS1, human HaCaT keratinocytes, human lung carcinoma A-549, and human colon adenocarcinoma DLD-1 at a density of 5 × 10^3 cells per well (Costar, Corning Inc., Lowell, MA, USA). The cells were allowed to adhere for 16 h before treatment. We then treated cells with T. vulgare essential oil or dissolved compounds in DMSO. The final concentration of DMSO in the culture medium was 0.5% (v/v) to avoid solvent toxicity. After 48 h, we assessed the cytotoxicity using the resazurin reduction test. Fluorescence was measured on an automated Fluoroskan Ascent FL^TM plate reader (Labsystems, Milford, MA, USA) using an excitation wavelength of 530 nm and an emission wavelength of 590 nm.
We assessed the cytotoxic activity of T. vulgare essential oil and its main compounds against human lung carcinoma A-549, colon adenocarcinoma DLD-1, human keratinocytes HaCaT, and healthy WS1 cell lines.

[1] = test system: NO production in murine macrophage RAW 264.7 cells; assay: Inhibition of NO production in LPS-stimulated RAW 264.7 macrophages (Griess reaction); assay type: cell-based; conditions: for IC50 / Anti-Inflammation IC50: inhibition of NO production, RAW 264.7, 100 ng·mL^−1 LPS, 24 h; for IC50: read-out: Anti-Inflammation IC50
Experimental: We evaluated the inhibition NO production by T. vulgare essential oil and compounds as described by Legault et al.. Control L-NAME was used as positive control. Murine macrophage RAW 264.7 cells were incubated with essential oil or dissolved compounds in DMSO and then stimulated with 100 ng·mL^−1 LPS and incubated at 37 °C. After 24 h, we collected the cell-free supernatants and immediately determined the NO concentration using the Griess reaction. We read the absorbance at 540 nm using an automated Varioskan Ascent plate reader (Labsystems, Milford, MA, USA), and quantified the presence of nitrite by comparing with a NaNO2 standard curve.

[2] = Cytotoxic assay, resazurin reduction test, 48 h; assay type: cell-based, human; conditions: human
Experimental: as §1

[3] = test system: human skin fibroblasts WS1; assay: Cell-based antioxidant DCFH-DA assay (tert-butylhydroperoxide-induced DCFH oxidation); conditions: inhibition of DCFH oxidation induced by tert-butylhydroperoxide, WS1 cells; for IC50: Homo sapiens
Experimental: Antioxidant activity was evaluated using the DCFH-DA assay as described by Girard-Lalancette et al.. To assess antioxidant activity, we incubated the human skin fibroblasts WS1 for 1 h with a growing concentration of essential oil or dissolved compounds in DMSO. We then added 100 µL of 200 µM tert-butylhydroperoxide and immediately measured fluorescence as well as again after 90 min later. Measurements were performed on an automated plate reader (Fluoroskan Ascent FL, Labsystems, Milford, MA, USA) using an excitation wavelength of 485 nm and an emission wavelength of 530 nm.

[4] = test system: Escherichia coli (ATCC 25922); assay: Antibacterial hydrophobic assay (resazurin); assay type: cell-based
Text: (§2) We tested the antibacterial activities of T. vulgare essential oil and compounds against gram-negative Escherichia coli (ATCC bacteria 25922) and gram-positive Staphylococcus aureus (ATCC bacteria 25923) using the antibacterial hydrophobic assay as described by Côté et al.. This new method was developed and used in this work as classical methods including disc diffusion and microdilution assays are sometimes inefficient for testing a matrix or compounds of a hydrophobic nature. Briefly, after microorganisms passed 16–18 h at 37 °C in a nutrient broth base (Difco), we transferred 20 µL methanol containing growing concentrations of essential oil and compounds (3.1 to 200 µg·mL^−1) onto nutrient agar of 96-well plates. We then added bacterial strains having a concentration of 5 × 10^3 colony forming units (CFU) per mL of nutrient broth. […] The blank consisted of culture medium only and was subtracted from all subsequent measurements of every other well. The 96-well plates were then incubated at 37 °C for 5 h to foster bacterial growth. We then added 100 µL of resazurin sodium salt solution having a concentration of 50 µg·mL^−1 (Sigma R-2127, St-Louis, MO, USA) to each well.

[5] = test system: Staphylococcus aureus (ATCC 25923); assay: Antibacterial hydrophobic assay (resazurin); assay type: cell-based
Text: as §2

[6] = test system: human colon adenocarcinoma DLD-1; assay: Cytotoxic assay, resazurin reduction test, 48 h; assay type: cell-based; conditions: DLD-1, 48 h
Experimental: as §1

[7] = test system: human lung carcinoma A-549; assay: Cytotoxic assay, resazurin reduction test, 48 h; assay type: cell-based; conditions: A-549, 48 h
Experimental: as §1

[8] = test system: human skin fibroblasts WS1; assay: Cytotoxic assay, resazurin reduction test, 48 h; assay type: cell-based; conditions: WS1, 48 h
Experimental: as §1

[9] = A-549 lung carcinoma cells, A-549, 48 h, read-out: Cytotoxicity IC50 A549
[10] = DLD-1 colon adenocarcinoma cells, DLD-1, 48 h, read-out: Cytotoxicity IC50 DLD1
[11] = WS1 skin fibroblasts, WS1, 48 h, read-out: Cytotoxicity IC50 WS1
[12] = Escherichia coli, ATCC25922, E. coli, 50% inhibition of bacterial growth
[13] = Staphylococcus aureus, ATCC25923, S. aureus, 50% inhibition of bacterial growth
[14] = E. coli, 50% inhibition of bacterial growth
[15] = S. aureus, 50% inhibition of bacterial growth
[16] = A-549, 48 h, read-out: Cytotoxicity IC50 A549
[17] = DLD-1, 48 h, read-out: Cytotoxicity IC50 DLD1
[18] = WS1, 48 h, read-out: Cytotoxicity IC50 WS1
[19] = Escherichia coli, ATCC25922, read-out: Antibacterial IC50 E. coli
[20] = Staphylococcus aureus, ATCC25923, read-out: Antibacterial IC50 S. aureus

Row | SMILES | IC50 at 48 h (in vitro) [µg/mL] | IC50 ([1]; Mus musculus, RAW264.7) [µg/mL] | IC50 at 48 h [2, 9] [µg/mL] | IC50 at 48 h [2, 10] [µg/mL] | IC50 at 48 h [2, 11] [µg/mL] | IC50 [3] [µg/mL] | IC50 [4, 12] [µg/mL] | IC50 [5, 13] [µg/mL] | further results
1 | CC12CCC(CC1)C(C)(C)O2 [1,8-Cineole] | > 200 | > 200 | > 200 | > 200 | > 200 | > 200 | > 200 | > 200 | –
2 | CC1(C)C2CCC1(C)C(O)C2 (stereo not shown) [Borneol] | > 200 | > 200 | > 200 | > 200 | > 200 | > 200 | > 200 | > 200 | –
3 | CC(=O)OC1CC2CCC1(C)C2(C)C (stereo not shown) [Bornyl acetate] | – | > 200 | > 200 | > 200 | > 200 | > 200 | > 200 | > 200 | –
4 | C=C1C2CCC(C2)C1(C)C (stereo not shown) [Camphene] | 28 to 112 (≈ 206 to 822 µM) | > 200 | 72 ± 2 | 75 ± 5 | 49 ± 1 | > 200 | > 200 | > 200 | –
5 | CC12CCC(CC1=O)C2(C)C (stereo not shown) [Camphor] | > 200 | > 200 | > 200 | > 200 | > 200 | > 200 | 22 to 26 (≈ 145 to 171 µM) | 22 to 26 (≈ 145 to 171 µM) | Antibacterial IC50 E. coli [4, 14]: 22 ± 1 µg/mL; Antibacterial IC50 S. aureus [5, 15]: 26 ± 3 µg/mL
6 | C=C1CC[C@H]2O[C@]2(C)CC[C@@H]2[C@@H]1CC2(C)C [Caryophyllene oxide] | – | – | – | – | – | – | – | – | Anti-Inflammation IC50 [1]: 183 ± 15 µg/mL; Cytotoxicity IC50 DLD1 [6]: 43 ± 3 µg/mL; Cytotoxicity IC50 A549 [7]: 36 ± 2 µg/mL; Cytotoxicity IC50 WS1 [8]: 50 ± 4 µg/mL; Antioxidant IC50 [3]: 6.2 ± 0.5 µg/mL; Antibacterial IC50 E. coli [4, 14]: 97 ± 2 µg/mL; Antibacterial IC50 S. aureus [5, 15]: 10.4 ± 0.9 µg/mL
7 | O=C(N[C@H](CO)[C@H](O)c1ccc([N+](=O)[O-])cc1)C(Cl)Cl [Chloramphenicol, reference compound] | – | – | – | – | – | – | – | – | MIC90 ([4]; Escherichia coli, ATCC25922, E. coli, antibiotic positive control): 0.9 µg/mL (≈ 2.79 µM); MIC90 ([5]; Staphylococcus aureus, ATCC25923, S. aureus, antibiotic positive control): 0.73 µg/mL (≈ 2.26 µM)
8 | COc1cc([C@@H]2c3cc4c(cc3[C@@H](O[C@@H]3O[C@@H]5CO[C@@H](C)O[C@H]5[C@H](O)[C@H]3O)[C@H]3COC(=O)[C@H]23)OCO4)cc(OC)c1O [Etoposide, reference compound] | – | – | – | – | – | – | – | – | IC50 at 48 h ([2]; A-549 lung carcinoma cells, A-549, cytotoxic positive control, read-out: Cytotoxicity IC50 A-549): 2300 nM; IC50 at 48 h ([2]; DLD-1 colon adenocarcinoma cells, DLD-1, cytotoxic positive control, read-out: Cytotoxicity IC50 DLD-1): 2800 nM; IC50 at 48 h ([2]; WS1 skin fibroblasts, WS1, cytotoxic positive control, read-out: Cytotoxicity IC50 WS1): 19000 nM
9 | COC(=O)[C@@H](N)CCCNC(N)=N[N+](=O)[O-] [L-NAME, reference compound] | – | – | – | – | – | – | – | – | inhibition at 1000 µM ([1]; Mus musculus, RAW264.7, 1 mM, positive control): 64.1%
10 | C=C(C)[C@H]1CC=C(C)CC1 [Limonene] | – | – | – | – | – | – | – | – | Anti-Inflammation IC50 [1]: >200 µg/mL; Cytotoxicity IC50 DLD1 [6]: 31 ± 3 µg/mL; Cytotoxicity IC50 A549 [7]: 71 ± 6 µg/mL; Antibacterial IC50 E. coli [4, 14]: >200 µg/mL; Antibacterial IC50 S. aureus [5, 15]: >200 µg/mL
11 | O=c1c(O)c(-c2ccc(O)c(O)c2)oc2cc(O)cc(O)c12 [Quercetin, reference compound] | – | – | – | – | – | 0.043 (≈ 0.142 µM) | – | – | –
12 | CC1=CCC(O)(C(C)C)CC1 (stereo not shown) [Terpinen-4-ol] | – | > 200 | > 200 | > 200 | > 200 | > 200 | > 200 | > 200 | –
13 | CC1=CCC(=C(C)C)CC1 [Terpinolene] | – | > 200 | – | – | – | – | – | – | IC50 at 48 h [2, 16]: > 200 µg/mL; IC50 at 48 h [2, 17]: > 200 µg/mL; IC50 at 48 h [2, 18]: > 200 µg/mL; IC50 [4, 19]: > 200 µg/mL; IC50 [5, 20]: > 200 µg/mL
14 | Cc1ccc(C(C)C)cc1 [p-Cymene] | – | > 200 | > 200 | > 200 | > 200 | > 200 | > 200 | > 200 | –
15 | C/C1=C\CC/C(C)=C/CC(C)(C)/C=C/C1 [α-Humulene] | – | – | – | – | – | – | – | – | Anti-Inflammation IC50 [1]: 15 ± 2 µg/mL; Cytotoxicity IC50 DLD1 [6]: 43 ± 3 µg/mL; Cytotoxicity IC50 A549 [7]: 28 ± 1 µg/mL; Cytotoxicity IC50 WS1 [8]: 24 ± 3 µg/mL; Antioxidant IC50 [3]: >200 µg/mL; Antibacterial IC50 E. coli [4, 14]: >200 µg/mL; Antibacterial IC50 S. aureus [5, 15]: >200 µg/mL
16 | CC1=CCC2CC1C2(C)C (stereo not drawn) [α-Pinene] | 28 to 112 (≈ 206 to 822 µM) | 30 ± 4 (≈ 220 µM) | 35 ± 6 | 58 ± 18 | 57 ± 4 | 3.4 ± 0.2 (≈ 25 µM) | – | – | –
17 | CC1=CC=C(C(C)C)CC1 [α-Terpinene] | 28 to 112 (≈ 206 to 822 µM) | 46 ± 4 (≈ 338 µM) | – | – | – | > 200 | – | – | IC50 at 48 h [2, 16]: 63 ± 10 µg/mL; IC50 at 48 h [2, 17]: 73 ± 7 µg/mL; IC50 at 48 h [2, 18]: 53 ± 12 µg/mL; IC50 [4, 19]: > 200 µg/mL; IC50 [5, 20]: > 200 µg/mL
18 | C=C1CC/C=C(\C)CC[C@@H]2[C@@H]1CC2(C)C [β-Caryophyllene] | 28 to 112 (≈ 137 to 548 µM) | > 200 | 55 ± 5 | 97 ± 6 | 59 ± 7 | > 200 | > 200 | > 200 | –
19 | C=C1CCC2CC1C2(C)C (stereo not drawn) [β-Pinene] | 28 to 112 (≈ 206 to 822 µM) | 46 ± 9 (≈ 338 µM) | – | – | – | > 200 | > 200 | > 200 | IC50 at 48 h [2, 16]: 43 ± 4 µg/mL; IC50 at 48 h [2, 17]: 49.4 ± 0.3 µg/mL; IC50 at 48 h [2, 18]: 29 ± 14 µg/mL
20 | CC1=CCC(C(C)C)=CC1 [γ-Terpinene] | 28 to 112 (≈ 206 to 822 µM) | > 200 | – | – | – | – | – | – | IC50 at 48 h [2, 16]: 112 ± 15 µg/mL; IC50 at 48 h [2, 17]: > 200 µg/mL; IC50 at 48 h [2, 18]: 82 ± 15 µg/mL; IC50 [4, 19]: > 200 µg/mL; IC50 [5, 20]: 50 ± 9 µg/mL (≈ 367 µM)
